Test systems include NCI-H226 lung; SN12C renal; HCT-116 colon; IGROV1 ovarian; OVCAR-5 ovarian; SF-268 CNS; RXF 393 renal; UACC-62 melanoma; HCT-15 colon; SK-MEL-2 melanoma.
Test in all cases: growth of human tumour cells (NCI), 48 h

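Dose response: 5 concentrations. Exposure: 48 h. Format: 96-well plates. Endpoint: linear interpolation; highest concentration if not reached. Definition used: TGI = concentration required for complete inhibition of growth.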

Turning to `COC(NC(=O)Nc1ccccc1C)(C(F)(F)F)C(F)(F)F`, the TGI in the assay on NCI-H226 lung, in the assay on SN12C renal, in the assay with HCT-116 colon, in the assay on IGROV1 ovarian, with OVCAR-5 ovarian and with SF-268 CNS was > 100 µM throughout. The TGI in the assay with RXF 393 renal and in the assay with UACC-62 melanoma was > 100 µM in each case.

Regarding `O=C(OCc1ccccc1)N1CCNCCNCCN(C(=O)OCc2ccccc2)CCNCC1`, the TGI in the assay with NCI-H226 lung was > 100 µM; with HCT-15 colon, 50.1 µM; with SN12C renal, > 100 µM; in the assay with HCT-116 colon, 29.1 µM; with SK-MEL-2 melanoma, 32.9 µM; in the assay on IGROV1 ovarian it was 91.3 µM. The TGI in the assay on OVCAR-5 ovarian is > 100 µM; in the assay with UACC-62 melanoma, 31.7 µM.

With `Clc1ccc(C2=CCN3CC=C(c4ccc(Cl)cc4)C23)cc1`, the TGI with NCI-H226 lung worked out at 43.2 µM; with HCT-15 colon it was 23.5 µM; in the assay on SN12C renal, 21 µM; in the assay on HCT-116 colon, 19.2 µM; in the assay on SK-MEL-2 melanoma, 29.6 µM; in the assay with IGROV1 ovarian, 21.9 µM. The TGI with OVCAR-5 ovarian was 17 µM; in the assay on SF-268 CNS it was 24.2 µM; in the assay on UACC-62 melanoma it was 21.2 µM.

For `CC1CCC2(OC1)OC1C(O)C3C4CCC5CC(OC6OC(CO)C(OC7OC(CO)C(O)C(OC8OCC(O)C(O)C8O)C7OC7OC(CO)C(O)C(OC8OC(CO)C(O)C(O)C8O)C7O)C(O)C6O)C(O)CC5(C)C4CCC3(C)C1C2C` (stereo unspecified), the TGI was found to be 3.33 µM with NCI-H226 lung; 12.2 µM in the assay with HCT-15 colon; 9.88 µM in the assay on SN12C renal; 3.36 µM with HCT-116 colon; 17.8 µM in the assay with SK-MEL-2 melanoma; 6.7 µM in the assay on IGROV1 ovarian. Moreover, the figures for the TGI in the assay with OVCAR-5 ovarian, with SF-268 CNS and in the assay on UACC-62 melanoma were 4.12 µM, 4.85 µM and 14.1 µM, respectively.

Turning to `CCN(CC)C(=O)Cn1c2c(c3ccccc31)CCCC2`, the TGI with HCT-15 colon, with SN12C renal, with HCT-116 colon, in the assay with SK-MEL-2 melanoma, in the assay with IGROV1 ovarian and in the assay on OVCAR-5 ovarian was > 100 µM in each case. Moreover, the TGI in the assay on SF-268 CNS and in the assay with UACC-62 melanoma was > 100 µM in each case.

Regarding `O=C(N=Nc1ccccc1Cl)NNc1ccccc1Cl`, the TGI is > 100 µM in the assay with NCI-H226 lung; > 100 µM in the assay on HCT-15 colon; > 100 µM with SN12C renal; > 100 µM in the assay with HCT-116 colon; 67.4 µM in the assay on SK-MEL-2 melanoma; 43.2 µM in the assay on IGROV1 ovarian. Besides, the TGI in the assay with OVCAR-5 ovarian, in the assay on SF-268 CNS and in the assay on UACC-62 melanoma was > 100 µM throughout.

As to `O=[N+]([O-])/C(C(Cl)=C(Cl)Cl)=C(/Nc1cccc2cccnc12)n1nnc2ccccc21`, the TGI in the assay on NCI-H226 lung was 67.4 µM; with HCT-15 colon, 28.1 µM; in the assay with SN12C renal it was 39.5 µM; in the assay with HCT-116 colon, > 100 µM; in the assay on SK-MEL-2 melanoma, 33.5 µM; with OVCAR-5 ovarian, 58.3 µM. This molecule also gave a TGI with SF-268 CNS of 37.4 µM.

As for `COC1=CC(=O)N(C)C(O)C1(C#N)OC1OC(CO)C(O)C(O)C1O` (stereo unspecified), the TGI in the assay on NCI-H226 lung, in the assay with HCT-15 colon, in the assay on SN12C renal, in the assay with HCT-116 colon, in the assay with SK-MEL-2 melanoma and in the assay with IGROV1 ovarian was > 100 µM in each case. In addition, the TGI with OVCAR-5 ovarian, with SF-268 CNS and in the assay on UACC-62 melanoma was > 100 µM each time.

With `C=C1CC(C)(c2cccc(Nc3nc4ccccc4c4occc34)c2)OC1=O` (stereo unspecified), the TGI in the assay on NCI-H226 lung was determined as 4.54 µM; with HCT-15 colon, 17.4 µM; with SN12C renal it was 7.75 µM; with HCT-116 colon, 3.1 µM; with OVCAR-5 ovarian it was 31.7 µM; in the assay on SF-268 CNS, 29.1 µM. Besides, the results for the TGI with RXF 393 renal and in the assay on UACC-62 melanoma were 6.02 µM and 2.43 µM, respectively.

Turning to `CCSC1=CC2(O)N(CCc3ccc(OC)c(OC)c3)C(=O)CC2(C(=O)OC)CC1=O` (stereo unspecified), the TGI with NCI-H226 lung is > 100 µM; in the assay with HCT-15 colon, 72.7 µM; in the assay on SN12C renal it was 36.3 µM; in the assay on HCT-116 colon, 32.1 µM; with SK-MEL-2 melanoma, 38.9 µM; in the assay on IGROV1 ovarian, 33.6 µM. The TGI is > 100 µM in the assay with OVCAR-5 ovarian and 39.8 µM with UACC-62 melanoma.

For the molecule `CCC(=O)OC1CCn2c1nc1c2C(=O)C(C)=C(NC(C)=O)C1=N` (stereo unspecified), the TGI in the assay with NCI-H226 lung stood at 4.63 µM; in the assay with HCT-15 colon, 6.27 µM; in the assay with SN12C renal, 3.02 µM; with HCT-116 colon, 2.39 µM; in the assay with SK-MEL-2 melanoma, 3.43 µM; in the assay on IGROV1 ovarian it was 5.54 µM. Besides, the figures for the TGI in the assay on OVCAR-5 ovarian, in the assay on SF-268 CNS and in the assay on UACC-62 melanoma were 3.47 µM, 4.94 µM and 2.71 µM, respectively.

For `COc1cc2nc(-c3cccs3)nc(Nc3cccc(Cl)c3)c2cc1OC`, the TGI with NCI-H226 lung, with HCT-15 colon, in the assay with SN12C renal, with HCT-116 colon, in the assay with SK-MEL-2 melanoma and with IGROV1 ovarian was > 100 µM each time. For the same molecule, the TGI in the assay with OVCAR-5 ovarian, in the assay on SF-268 CNS and in the assay on UACC-62 melanoma was > 100 µM in each case.

The record behind these values is PubChem BioAssay (NCI).
